Earlier results, collected in US20210220455A1, “COMPOSITIONS AND METHODS FOR PERSONALIZED NEOPLASIA VACCINES” (The Broad Institute, Inc., priority 2013, published 2021).

Assays:
healthy human volunteers = conditions: cited from earlier work
[1] = tested on: ovarian carcinoma patients; conditions: cited from earlier work

## Polyinosinic-Polycytidylic Acid-poly-L-lysine Carboxymethylcellulose [poly-ICLC]
Healthy human volunteers; 8 volunteers, one single s.c. administration vs 4 placebo subjects
  differentially expressed genes versus placebo: up to 212 genes
Healthy human volunteers; human, in vivo
  safety in human volunteer study: safe
[1]; 1.4 mg poly-ICLC and Montanide added to OLP vs OLP alone or OLP and Montanide
  generation of NY-ESO-1-specific CD4+ and CD8+ T-cell and antibody responses: markedly enhanced
[1]; poly-ICLC with NY-ESO-1 peptide vaccine and Montanide
  patients showing induction of CD4+ and CD8+ T cell and antibody responses to the peptide: > 90%
